Assays:
[1] = molecular target: recombinant human baculovirus-expressed cMET (Homo sapiens (Human), UniProt P08581); experiment: C-MET Kinase Assay (HTRF KinEASE); type: biochemical; settings: average of two or more determinations; read-out: c-MET IC50
Summary of the method: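 HTRF KinEASE format with recombinant human baculovirus-expressed cMET at 8 ng/mL, biotinylated peptide at 0.1 μM and ATP at 0.02 μM. IC50 came from percent control activity versus log concentration, fitted by nonlinear regression to a variable-slope sigmoidal equation with bottom fixed at 0 and top at 100.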

[2] = molecular target: recombinant human baculovirus-expressed AXL (Homo sapiens (Human), UniProt P30530); experiment: AXL Kinase Assay (HTRF KinEASE); type: biochemical; settings: average of two or more determinations
Description: The ability of compounds to inhibit the kinase activity of recombinant human baculovirus-expressed AXL was measured by homogeneous TRF (HTRF) using Cisbio's KinEASE™ assay system in white 384-well Optiplates. Assay buffer contained 1 mM DTT, 2 mM MnCl2, 2% DMSO, […] supplement enzymatic buffer, and 1× enzymatic buffer. A 2× concentration of tyrosine kinase (TK) substrate-biotin/ATP mixture made in assay buffer was added to plates at 10 μL/well using the Multidrop Combi (Thermo Fisher Scientific, Waltham, Mass.). […] Compounds (100 nL), diluted in 100% DMSO on the Biomek FX, (Beckman Coulter, Inc., Brea, Calif.), were transferred to the assay plates using the Biomek FX pintool (2.5% final DMSO in assay). […] Plates were sealed, briefly shaken and incubated at 25° C. for 30 minutes. […] Plates were sealed, briefly shaken and incubated at 25° C. for 1 hour.
Inhibition curves for compounds were generated by plotting percent control activity versus log 10 of the concentration of compound. IC50 values were calculated by nonlinear regression using the sigmoidal dose-response (variable slope) equation in GraphPad Prism as follows: y=bottom+(top−bottom)/(1+10(log IC50−x)*Hill Slope) where y is the % kinase activity at a given concentration of compound, x is the logarithm of the concentration of compound, bottom is the % of control kinase activity at the highest compound concentration tested, and top is the % of control kinase activity at the lowest compound concentration examined. The values for bottom and top were fixed at 0 and 100, respectively.

Row | SMILES | IC50 [1] [µM] | IC50 [2] [µM]
1 | COc1cc2nccc(C(O)c3ccc(NC(=O)c4cn(C)c(=O)n(-c5ccc(F)cc5)c4=O)cc3F)c2cc1OC (stereo not shown) [Example 57, 3-(4-fluoro-phenyl)-1-methyl-2,4-dioxo-1,2,3,4-tetrahydro-pyrimidine-5-carboxylic acid {4-[(6,7-dimethoxy-quinolin-4-yl)-hydroxy-methyl]-3-fluoro-phenyl}-amide] | 0.101 to 1 | < 0.01
2 | COc1cc2nccc(Cc3ccc(NC(=O)c4cn(C)c(=O)n(-c5ccc(F)cc5)c4=O)cc3F)c2cc1OC [Example 58, 3-(4-fluoro-phenyl)-1-methyl-2,4-dioxo-1,2,3,4-tetrahydro-pyrimidine-5-carboxylic acid [4-(6,7-dimethoxy-quinolin-4-ylmethyl)-3-fluoro-phenyl]-amide] | 0.01 to 0.1 | < 0.01
3 | C#CCn1cc(C(=O)Nc2ccc(Oc3ccnc4cc(OC)c(OC)cc34)c(F)c2)c(=O)n(-c2ccc(F)cc2)c1=O [Example 61, 3-(4-Fluoro-phenyl)-2,4-dioxo-1-prop-2-ynyl-1,2,3,4-tetrahydro-pyrimidine-5-carboxylic acid [4-(6,7-dimethoxy-quinolin-4-yloxy)-3-fluoro-phenyl]-amide] | < 0.01 | < 0.01
4 | COc1cc2nccc(Oc3ccc(NC(=O)c4cn(CCn5ccnc5)c(=O)n(-c5ccc(F)cc5)c4=O)cc3F)c2cc1OC [Example 62, 3-(4-Fluoro-phenyl)-1-(2-imidazol-1-yl-ethyl)-2,4-dioxo-1,2,3,4-tetrahydro-pyrimidine-5-carboxylic acid [4-(6,7-dimethoxy-quinolin-4-yloxy)-3-fluoro-phenyl]-amide] | < 0.01 | < 0.01
5 | COc1cc2nccc(Oc3ccc(NC(=O)c4cn(CCn5cccn5)c(=O)n(-c5ccc(F)cc5)c4=O)cc3F)c2cc1OC [Example 63, 3-(4-Fluoro-phenyl)-2,4-dioxo-1-(2-pyrazol-1-yl-ethyl)-1,2,3,4-tetrahydro-pyrimidine-5-carboxylic acid [4-(6,7-dimethoxy-quinolin-4-yloxy)-3-fluoro-phenyl]-amide] | < 0.01 | < 0.01
6 | COc1cc2nccc(Oc3ccc(NC(=O)c4cn(CCc5ccccc5)c(=O)n(-c5ccc(F)cc5)c4=O)cc3F)c2cc1OC [Example 64, 3-(4-Fluoro-phenyl)-2,4-dioxo-1-phenethyl-1,2,3,4-tetrahydro-pyrimidine-5-carboxylic acid [4-(6,7-dimethoxy-quinolin-4-yloxy)-3-fluoro-phenyl]-amide] | 0.01 to 0.1 | < 0.01
7 | COc1cc2nccc(Oc3ccc(NC(=O)c4cn(CCC5OCCO5)c(=O)n(-c5ccc(F)cc5)c4=O)cc3F)c2cc1OC [Example 65, 1-[2-(1,3-Dioxolan-2-yl-ethyl)]-3-(4-fluoro-phenyl)-2,4-dioxo-1,2,3,4-tetrahydro-pyrimidine-5-carboxylic acid [4-(6,7-dimethoxy-quinolin-4-yloxy)-3-fluoro-phenyl]-amide] | 0.01 to 0.1 | < 0.01
8 | CCN(CC)C(=O)Cn1cc(C(=O)Nc2ccc(Oc3ccnc4cc(OC)c(OC)cc34)c(F)c2)c(=O)n(-c2ccc(F)cc2)c1=O [Example 66, 1-Diethylcarbamoylmethyl-3-(4-fluoro-phenyl)-2,4-dioxo-1,2,3,4-tetrahydro-pyrimidine-5-carboxylic acid [4-(6,7-dimethoxy-quinolin-4-yloxy)-3-fluoro-phenyl]-amide] | < 0.01 | < 0.01
9 | COc1cc2nccc(Oc3ccc(NC(=O)c4cn(CC(=O)N5CCOCC5)c(=O)n(-c5ccc(F)cc5)c4=O)cc3F)c2cc1OC [Example 67, 3-(4-Fluoro-phenyl)-1-(2-morpholin-4-yl-2-oxo-ethyl)-2,4-dioxo-1,2,3,4-tetrahydro-pyrimidine-5-carboxylic acid [4-(6,7-dimethoxy-quinolin-4-yloxy)-3-fluoro-phenyl]-amide] | 0.01 to 0.1 | < 0.01
10 | COc1cc2nccc(Oc3ccc(NC(=O)c4cn(CCN5CCCC5=O)c(=O)n(-c5ccc(F)cc5)c4=O)cc3F)c2cc1OC [Example 68, 3-(4-Fluoro-phenyl)-2,4-dioxo-1-[2-(2-oxo-pyrrolidin-1-yl)-ethyl]-1,2,3,4-tetrahydro-pyrimidine-5-carboxylic acid [4-(6,7-dimethoxy-quinolin-4-yloxy)-3-fluoro-phenyl]-amide] | < 0.01 | < 0.01
11 | COc1cc2nccc(Oc3ccc(NC(=O)c4cn(CCF)c(=O)n(-c5ccc(F)cc5)c4=O)cc3F)c2cc1OC [Example 69, 1-(2-Fluoro-ethyl)-3-(4-fluoro-phenyl)-2,4-dioxo-1,2,3,4-tetrahydro-pyrimidine-5-carboxylic acid [4-(6,7-dimethoxy-quinolin-4-yloxy)-3-fluoro-phenyl]-amide] | < 0.01 | < 0.01
12 | COc1cc2nccc(Oc3ccc(NC(=O)c4cn(CC(=O)O)c(=O)n(-c5ccc(F)cc5)c4=O)cc3F)c2cc1OC [Example 71, [5-[4-(6,7-Dimethoxyquinolin-4-yloxy)-3-fluorophenylcarbamoyl]-3-(4-fluorophenyl)-2,4-dioxo-3,4-dihydro-2H-pyrimidin-1-yl]-acetic acid] | < 0.01 | < 0.01
13 | COc1cc2nccc(Oc3ccc(NC(=O)c4cn(Cc5ncco5)c(=O)n(-c5ccc(F)cc5)c4=O)cc3F)c2cc1OC [Example 72, 3-(4-Fluoro-phenyl)-1-oxazol-2-ylmethyl-2,4-dioxo-1,2,3,4-tetrahydro-pyrimidine-5-carboxylic acid [4-(6,7-dimethoxy-quinolin-4-yloxy)-3-fluoro-phenyl]-amide] | 0.01 to 0.1 | < 0.01
14 | COc1cc2nccc(Oc3ccc(NC(=O)c4cn(CC5CCCO5)c(=O)n(-c5ccc(F)cc5)c4=O)cc3F)c2cc1OC (stereo not shown) [Example 73, 3-(4-Fluoro-phenyl)-2,4-dioxo-1-(tetrahydro-furan-2-ylmethyl)-1,2,3,4-tetrahydro-pyrimidine-5-carboxylic acid [4-(6,7-dimethoxy-quinolin-4-yloxy)-3-fluoro-phenyl]-amide] | 0.01 to 0.1 | < 0.01
15 | COc1cc2nccc(Oc3ccc(NC(=O)c4cn(CC5CCOCC5)c(=O)n(-c5ccc(F)cc5)c4=O)cc3F)c2cc1OC [Example 74, 3-(4-Fluoro-phenyl)-2,4-dioxo-1-(tetrahydro-pyran-4-ylmethyl)-1,2,3,4-tetrahydro-pyrimidine-5-carboxylic acid [4-(6,7-dimethoxy-quinolin-4-yloxy)-3-fluoro-phenyl]-amide] | 0.01 to 0.1 | < 0.01
16 | COc1cc2nccc(Oc3ccc(NC(=O)c4cn(Cc5ccccc5)c(=O)n(-c5ccc(F)cc5)c4=O)cc3F)c2cc1OC [Example 77, 1-Benzyl-3-(4-fluoro-phenyl)-2,4-dioxo-1,2,3,4-tetrahydro-pyrimidine-5-carboxylic acid [4-(6,7-dimethoxy-quinolin-4-yloxy)-3-fluoro-phenyl]-amide] | 0.01 to 0.1 | < 0.01
17 | COc1cc2nccc(Oc3ccc(NC(=O)c4cn(CCc5ccccc5F)c(=O)n(-c5ccc(F)cc5)c4=O)cc3F)c2cc1OC [Example 78, 3-(4-Fluoro-phenyl)-1-[2-(2-fluoro-phenyl)-ethyl]-2,4-dioxo-1,2,3,4-tetrahydro-pyrimidine-5-carboxylic acid [4-(6,7-dimethoxy-quinolin-4-yloxy)-3-fluoro-phenyl]-amide] | 0.01 to 0.1 | < 0.01
18 | COc1cc2nccc(Oc3ccc(NC(=O)c4cn(CCc5ccc(F)cc5)c(=O)n(-c5ccc(F)cc5)c4=O)cc3F)c2cc1OC [Example 79, 3-(4-Fluoro-phenyl)-1-[2-(4-fluoro-phenyl)-ethyl]-2,4-dioxo-1,2,3,4-tetrahydro-pyrimidine-5-carboxylic acid [4-(6,7-dimethoxy-quinolin-4-yloxy)-3-fluoro-phenyl]-amide] | 0.01 to 0.1 | < 0.01
19 | COc1cc2nccc(Oc3ccc(NC(=O)c4cn(CC(=O)N5CCCC5)c(=O)n(-c5ccc(F)cc5)c4=O)cc3F)c2cc1OC [Example 82, 3-(4-Fluoro-phenyl)-2,4-dioxo-1-(2-oxo-2-pyrrolidin-1-yl-ethyl)-1,2,3,4-tetrahydro-pyrimidine-5-carboxylic acid [4-(6,7-dimethoxy-quinolin-4-yloxy)-3-fluoro-phenyl]-amide] | 0.01 to 0.1 | < 0.01
20 | COc1cc2nccc(Oc3ccc(NC(=O)c4cn(CC(=O)N(C)C)c(=O)n(-c5ccc(F)cc5)c4=O)cc3F)c2cc1OC [Example 83, 1-Dimethylcarbamoylmethyl-3-(4-fluorophenyl)-2,4-dioxo-1,2,3,4-tetrahydro-pyrimidine-5-carboxylic acid [4-(6,7-dimethoxy-quinolin-4-yloxy)-3-fluorophenyl]-amide] | 0.01 to 0.1 | < 0.01

From patent publication US9745283B2, “Uracil derivatives as AXL and c-MET kinase inhibitors” (priority 2011, dated 2017)
